The values below come from paper PMC5794799, “Kaempferol mitigates Endoplasmic Reticulum Stress Induced Cell Death by targeting caspase 3/7” (Scientific Reports, 2018).

This assay deals with T1, caspase-3 (Homo sapiens, UniProt P42574).
T1 construct: gene CASP3; recombinant active caspase-3 enzyme
T1 sequence (P42574 29-175): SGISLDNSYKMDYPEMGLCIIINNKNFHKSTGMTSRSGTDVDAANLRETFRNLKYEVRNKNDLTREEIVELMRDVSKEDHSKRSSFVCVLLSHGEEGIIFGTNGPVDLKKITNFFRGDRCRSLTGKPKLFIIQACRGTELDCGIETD
T1 sequence (P42574 176-277): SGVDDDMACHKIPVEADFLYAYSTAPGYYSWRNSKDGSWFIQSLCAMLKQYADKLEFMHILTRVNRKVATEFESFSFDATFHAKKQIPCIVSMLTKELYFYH
As to the kind of experiment: recombinant caspase-3 activity assay with luminogenic Z-DEVD-aminoluciferin (Caspase-Glo […]), dose response. The format is biochemical.

Turning to `O=c1c(O)c(-c2ccc(O)cc2)oc2cc(O)cc(O)c12` [kaempferol], the IC50 is 5.65 µM.
